Read-outs that look alike come from different tables or passages of the source.
Experiments:
RKO cells = assay: Cell viability assay (WST-1); format: cell-based; settings: Homo sapiens
Method: (§1) RKO and HCT-116 cells (human colorectal cancer cell lines) were cultured in microtiter plates (tissue culture grade, 96-well flat) in a final volume of 100 μl culture medium containing 5-8×10^4 cells and the final concentrations of chemicals (1-500 μM). Cells were incubated in a humidified atmosphere for 8-24 hours. To the cultures, 10 μl of cell proliferation reagent, WST-1 (Roche Applied Science, Indianapolis, Ind., United States of America) was added, and reincubated for 1-2 hours. The absorbance of the samples was determined using a microtiter plate reader at a wavelength of 405-450 nm against background control. Reference wavelength was 620 nm. The tetrazolium salt, WST-1 (4-[3-(4-Iodophenyl)-2-(4-nitrophenyl)-2H-5-tetrazolio]-1,3-benzene disulfonate) was metabolized to formazan by the “succinate-tetrazolium reductase” system, which exists in mitochondria and is active only in viable cells. Thus, the formation of formazan (dark yellow color) is proportional to the viable cell numbers.
(§2) The generated data points were used to calculate ED50 values by creating a sigmoidal dose-response curve using non-linear regression. ED50 valued were calculated using the statistical analysis program PRISM® (GraphPad Software, Inc., San Diego, Calif., United States of America).

HCT-116 cells = assay: Cell viability assay (WST-1); format: cell-based; settings: Homo sapiens
Method: as §1, §2

[1] = concentration that reduces cell viability by 50%, read-out: ED50 RKO
[2] = concentration that reduces cell viability by 50%, read-out: ED50 HCT-116
[3] = second part of Table 9, read-out: ED50 RKO
[4] = second part of Table 9, read-out: ED50 HCT-116

SMILES	EC50 (RKO cells; [1]) [nM]	EC50 (HCT-116 cells; [2]) [nM]	EC50 (RKO cells; [3]) [nM]	EC50 (HCT-116 cells; [4]) [nM]
CSc1ccc(/C=C2\C=C(CC(=O)NCc3cccc(C(F)(F)F)c3)c3cc(F)ccc32)cc1 [Compound 25]	> 3000	> 3000	–	–
COc1ccc(NC(=O)CC2=C/C(=C\c3ccc(SC)cc3)c3ccc(F)cc32)cc1 [Compound 11]	> 3000	> 3000	–	–
CSc1ccc(/C=C2\C=C(CC(=O)NCc3cccc(O)c3)c3cc(F)ccc32)cc1 [Compound 16]	830 ± 60	1470 ± 30	–	–
CSc1ccc(/C=C2\C=C(CC(=O)N[C@H](C)c3ccccc3)c3cc(F)ccc32)cc1 [Compound 8]	> 3000	> 3000	–	–
CSc1ccc(/C=C2\C=C(CC(=O)NCc3ccc(C)cc3)c3cc(F)ccc32)cc1 [Compound 17]	730 ± 60	1200 ± 100	–	–
O=C(O)CC1=C/C(=C\c2ccc(Br)cc2)c2ccc(F)cc21 [Compound 37]	–	–	> 10000	–
CSc1ccc(/C=C2\C=C(CC(=O)NCc3ccccc3C)c3cc(F)ccc32)cc1 [Compound 19]	> 3000	> 3000	–	–
[N-]=[N+]=NCc1ccc(/C=C2\C=C(CC(=O)NCc3ccc(NC(=O)CBr)cc3)c3cc(F)ccc32)cc1 [Compound 31]	> 3000	> 3000	–	–
CSc1ccc(/C=C2\C=C(CC(=O)NCc3cccc(C)c3)c3cc(F)ccc32)cc1 [Compound 18]	> 3000	> 3000	–	–
CSc1ccc(/C=C2\C=C(CC(=O)NCc3cccc(N)c3)c3cc(F)ccc32)cc1 [Compound 13]	990 ± 30	2080 ± 80	–	–
CSc1ccc(/C=C2\C=C(CC(=O)N(C)Cc3ccccc3)c3cc(F)ccc32)cc1 [Compound 6]	> 3000	> 3000	–	–
COc1ccc(/C=C2\C=C(CC(=O)NCc3ccccc3)c3cc(F)ccc32)cc1 [Compound 35]	–	–	700 ± 100	1000 ± 800
CSc1ccc(/C=C2\C=C(CC(=O)NCc3cccc(Cl)c3)c3cc(F)ccc32)cc1 [Compound 21]	> 3000	> 3000	–	–
CS(=O)(=O)c1ccc(/C=C2\C=C(CC(=O)NCc3ccccc3)c3cc(F)ccc32)cc1 [Compound 33]	–	–	800 ± 100	1200 ± 300
CSc1ccc(/C=C2\C=C(CC(=O)NCc3ccccc3)c3cc(F)ccc32)cc1 [Compound 3]	1100 ± 700	3900 ± 900	–	–
O=C(CC1=C/C(=C\c2ccccc2)c2ccc(F)cc21)NCc1ccccc1 [Compound 34]	–	–	5400 ± 500	–
CSc1ccc(/C=C2\C=C(CC(=O)NCc3ccc(Br)cc3)c3cc(F)ccc32)cc1 [Compound 22]	670 ± 70	1300 ± 200	–	–
CSc1ccc(/C=C2\C=C(CC(=O)NCc3ccc(C(=O)c4ccccc4)cc3)c3cc(F)ccc32)cc1 [Compound 30]	40 ± 20	180 ± 40	–	–
CSc1ccc(/C=C2\C=C(CC(=O)NCc3ccc([N+](=O)[O-])cc3)c3cc(F)ccc32)cc1 [Compound 26]	540 ± 70	2100 ± 700	–	–
CSc1ccc(/C=C2\C=C(CC(=O)NCc3cccc([N+](=O)[O-])c3)c3cc(F)ccc32)cc1 [Compound 27]	> 3000	> 3000	–	–
CSc1ccc(/C=C2\C=C(CC(=O)Nc3ccccc3)c3cc(F)ccc32)cc1 [Compound 2]	> 3000	> 3000	–	–
CSc1ccc(/C=C2\C=C(CC(=O)NCc3ccc(C(F)(F)F)cc3)c3cc(F)ccc32)cc1 [Compound 24]	> 3000	> 3000	–	–
CSc1ccc(/C=C2\C=C(CC(=O)NCCc3ccccc3)c3cc(F)ccc32)cc1 [Compound 4]	> 3000	> 3000	–	–
O=C(CC1=C/C(=C\C2CCCCC2)c2ccc(F)cc21)NCc1ccccc1 [Compound 38]	–	–	6700 ± 100	–
CSc1ccc(/C=C2\C=C(CC(=O)NCCCc3ccccc3)c3cc(F)ccc32)cc1 [Compound 5]	> 3000	> 3000	–	–
CSc1ccc(/C=C2\C=C(CC(=O)NCc3ccccc3N)c3cc(F)ccc32)cc1 [Compound 14]	> 3000	> 3000	–	–
O=C(O)CC1=C/C(=C\c2ccc(C(=O)O)cc2)c2ccc(F)cc21 [Compound 36]	–	–	6400 ± 600	–
